Laboratory results taken from patent publication US8653126B2, “Imidazole derivative” (Daiichi Sankyo Company, Limited, priority 2010, dated 2014).

Molecular target: T1, S1P lyase (Mus musculus, UniProt Q8R0X7)
T1 construct: The extirpated thymus was crushed; from tissue; host or cells: thymus of BALB/c mice (thymus extract)
T1 sequence (Q8R0X7 1-568): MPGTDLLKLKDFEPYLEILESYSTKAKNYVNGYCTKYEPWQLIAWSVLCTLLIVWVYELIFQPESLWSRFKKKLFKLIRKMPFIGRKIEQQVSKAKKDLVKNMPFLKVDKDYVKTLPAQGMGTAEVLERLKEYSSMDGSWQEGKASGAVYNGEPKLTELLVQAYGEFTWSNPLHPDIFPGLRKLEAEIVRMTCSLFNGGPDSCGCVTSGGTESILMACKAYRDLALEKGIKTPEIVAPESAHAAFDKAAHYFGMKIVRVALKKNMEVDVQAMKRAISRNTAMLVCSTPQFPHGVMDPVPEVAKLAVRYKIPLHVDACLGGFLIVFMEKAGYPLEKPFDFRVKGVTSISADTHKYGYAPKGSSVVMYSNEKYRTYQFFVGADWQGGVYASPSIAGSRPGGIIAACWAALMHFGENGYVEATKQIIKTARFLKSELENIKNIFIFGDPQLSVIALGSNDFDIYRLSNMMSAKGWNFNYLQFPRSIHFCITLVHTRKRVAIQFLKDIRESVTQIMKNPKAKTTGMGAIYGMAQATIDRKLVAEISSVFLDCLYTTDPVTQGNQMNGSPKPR
Experiment: S1P lyase inhibitory capacity in mice (thymus extract after oral dosing)
Assay type: in vivo
Conditions: BALB/c mice, single oral dose, S1P lyase activity of thymus extract with [3H]dhS1P
Experimental: Male BALB/c mice at age 6 weeks were purchased from Charles River Laboratories Japan Inc. Mice that had reached age 7 weeks after 1-week acclimation were used for the experiment. A group of 5 animals was used for the experiment. The necessary amount of the analyte was weighed, and subsequently suspended in a 0.5% MC solution using a mortar and a pestle. The solution to be administered was prepared so as to be 10 mL per 1 kg of body weight. The prepared compound solution was administered orally in a single dose using a stomach tube.
Dipotassium dihydrogen ethylenediaminetetraacetate (EDTA-2K, Nacalai Tesque, Inc.) was dissolved with water for injection so as to be 5% (5% EDTA-2K solution). […] At that time, the thymus was also extirpated. The obtained blood was handled under the condition of room temperature until measurement. […]
The extirpated thymus was crushed by means of either a method using zirconia beads in the presence of 500 μl, of a homogenization buffer (50 mM HEPES-NaOH (pH=7.4), 0.15 M NaCl, 10% Glycerol, 1 mM EDTA, 1 mM DTT, complete protease inhibitor cocktail (Roche, #4693132)), or a method using Potter-Elvehjem type homogenizer after mincing. […] After the proteins of the supernatant were quantified with Bradford method, the supernatant was instantly frozen with liquid nitrogen, and subsequently stored at −80° C. […]

S1P lyase inhibition in mice	SMILES
inhibited S1P lyase in mice	CCOCn1cc(CO)nc1C(C)=O [Example 1, 1-(1-Ethoxymethyl-4-hydroxymethyl-1H-imidazol-2-yl)ethanone]
inhibited S1P lyase in mice	COCn1cc(CO)nc1C(C)=O [Example 5, 1-(4-Hydroxymethyl-1-methoxymethyl-1H-imidazol-2-yl)ethanone]
